Laboratory results taken from US7601717B2, “Pterin analogs” (BioMarin Pharmaceutical Inc., priority 2008, dated 2009).
Structures can show the parent of a compound that is named as a salt. Where two headings read alike, the source gives them in different places.

Experiments:
[1] = Pharmacokinetics and bioavailability, single intravenous or oral doses, partial Latin square crossover; type: in vivo, male cynomolgus monkeys; conditions: for bioavailability: male, cynomolgus monkey, plasma, po; for Absolute Bioavailability of the BH4 Analog: dihydrochloride; for Val-BH4/(BH4 + BH2 + B), analog remaining in systemic circulation / Val-BH4/BH4, analog remaining in systemic circulation: determined from AUC0-t; for Val-BH4/total biopterin, analog remaining in systemic circulation: from AUC0-t, total biopterin adjusted to BH4 analog
Description: This study was to determine the pharmacokinetics and relative bioavailability of BH4 when given as parent BH4 or an analog of BH4 to male cynomolgus monkeys as single intravenous or oral doses in a partial Latin square crossover design.
Six, male, non-naïve cynomolgus monkeys were fasted overnight prior to dosing through approximately 4 hours postdose. Individual doses were calculated based on body weights recorded on each day of dose administration. Five experimental groups of monkeys were evaluated using a partial Latin square crossover design: Group 1-2 mg/kg BH4 by IV; Group 2-40 mg/kg BH4 by oral gavage; Group 3-2 mg/kg BH4 analog by IV; Group 4-5 mg/kg BH4 analog by oral gavage; Group 5-20 mg/kg BH4 analog by oral gavage. The doses of BH4 analog were prepared as mg/kg equivalents of BH4 (calculated using BH4 and BH4 analog 2HCl molecular weights). The partial Latin square crossover design was used to minimize dose sequence effect on interanimal variability for statistical purposes. The monkeys received their respective dose of BH4 intravenously (2 mL/kg, dissolved in 100 μM ascorbic acid and 5% mannitol in sterile water for injection, SWFI), Example 5 intravenously (2 mL/kg, dissolved in 100 μM ascorbic acid and 5% mannitol in citrate buffer, pH 3) or BH4 or Example 5 by oral gavage (4 mL/kg, dissolved in 100 μM ascorbic acid in SWFI). Prior to use, all intravenous dose formulations were filtered into the final dosing container using a 0.22-micron syringe filter (Millex GS or GV; Millipore).
For intravenous administration, blood (approximately 1 mL) was collected from each animal predose and at 0.083, 0.25, 0.5, 1, 2, 3, 4, 6, 8, 12, 18, and 24 hours postdose. For oral administration, blood (approximately 1 mL) was collected from each animal predose and at 0.25, 0.5, 1, 2, 3, 4, 6, 8, 12, 18, and 24 hours postdose. Blood was collected into tubes containing K2-EDTA anticoagulant, which was maintained in chilled condition, and centrifuged to obtain plasma. Centrifugation began within 30 minutes of collection. Three, 100-μL aliquots of each plasma sample were promptly transferred following centrifugation into individual tubes containing 0.1% (w/v) dithioerythritol (DTE) for storage. Once the plasma aliquot was added, each tube was vortexed briefly to mix then immediately placed on dry ice.

[2] = test system: Spontaneously Hypertensive rats (SHR); test: Anti-hypertensive effect, tail-cuff systolic blood pressure in SHR; type: in vivo, rat; conditions: SHR; for decrease in systolic blood pressure (SBP): 3 weeks
Description: This study was to determine if the BH4 analogs have a similar hypotensive effect and to determine the steady state pharmacokinetics (PK) profiles of plasma BH4 concentrations.
Male Wistar-Kyoto (WKY) rats and SHR rats (Elevage Janvier, France, 7 weeks old) were housed seven days prior to the beginning of experiments with free access to standard chow and water and maintained on an inversed 12 h dark/light cycle (10:00/22:00). After a one week acclimation period, the animals were trained to the tail-cuff system during one week (3 sessions). The following week, two baseline measurements of blood pressure were performed.
The rats (10 weeks old) then received respective treatments of water, vehicle, 2, 10, or 30 mg/kg/day of BH4 analog (Example 5, Val-BH4) or 100 mg/kg/day BH4 by oral gavage (8 mL/kg, dissolved in 100 μM ascorbic acid) performed once a day during 21 days of treatment. The doses of BH4 analog were prepared as mg/kg equivalents of BH4 (calculated using BH4 and BH4 analog 2HCl molecular weights). Body weight was monitored 3 times per week and the most recent body weight was used to adjust drug and vehicle daily intake. Seven experimental groups of rats were evaluated: Group 1—normotensive WKY rats and water gavage; Group 2—hypertensive SHR rats and water gavage; Group 3—hypertensive SHR rats and vehicle gavage; Group 4—hypertensive SHR rats and BH4 100 mg/kg/day gavage; Group 5—hypertensive SHR rats and BH4 analog 2 mg/kg/day gavage; Group 6—hypertensive SHR rats and BH4 analog 10 mg/kg/day gavage; Group 7—hypertensive SHR rats and 30 mg/kg/day BH4 analog gavage. To account for animal loss or animal disqualification during experimental handling, 10 rats were used in each group, with the expectation to obtain interpretable results for at least 8. Systolic blood pressure (SBP) and heart rate (HR) were measured twice weekly during the 3-week treatment period.
Systolic blood pressure (SBP) and heart rate (HR) were measured using the tail-cuff method, twice before the beginning of the treatment and twice weekly during the 3 week treatment period (6 measurements during the treatment period). Rats were placed in a plastic restraint and warmed to […]. A pneumatic pulse sensor was attached to the tail. After cuff inflation, SBP was measured and HR was determined by counting pulse numbers per minute. Data for each rat was taken an average of at least 4 stable readings. At least 10 cuff inflations were performed for each BP measurement.

bioavailability ([1]; 5 mg/kg, oral 5 mg/kg (BH4 equivalents), n=6, read-out: Absolute Bioavailability of the BH4 Analog): 36%
bioavailability ([1]; 20 mg/kg, oral 20 mg/kg (BH4 equivalents), n=6, read-out: Absolute Bioavailability of the BH4 Analog): 33%
bioavailability ([1]; 20 mg/kg, oral 5 and 20 mg/kg, read-out: absolute bioavailability of Val-BH4 present in plasma): 33 to 36%
Absolute Bioavailability of the BH4 Analog ([1]; oral 5 mg/kg (BH4 equivalents), n=6, 5 mg/kg): 36.2 (26.3) %
Val-BH4/(BH4 + BH2 + B), analog remaining in systemic circulation ([1]; oral 5 mg/kg, n=6): 36.4 (16.0) %
Val-BH4/BH4, analog remaining in systemic circulation ([1]; oral 5 mg/kg, n=6): 56.3 (25.2) %
Val-BH4/total biopterin, analog remaining in systemic circulation ([1]; oral 5 mg/kg, n=6): 23.5 (5.6) %
Absolute Bioavailability of the BH4 Analog ([1]; oral 20 mg/kg (BH4 equivalents), n=6, 20 mg/kg): 33.2 (29.2) %
Val-BH4/(BH4 + BH2 + B), analog remaining in systemic circulation ([1]; oral 20 mg/kg, n=6): 51.6 (11.6) %
Val-BH4/BH4, analog remaining in systemic circulation ([1]; oral 20 mg/kg, n=6): 81.0 (18.1) %
Val-BH4/total biopterin, analog remaining in systemic circulation ([1]; oral 20 mg/kg, n=6): 40.7 (11.1) %
percent of Val-BH4 remaining in systemic circulation ([1]; oral 5 and 20 mg/kg, based on total biopterin adjusted to Val-BH4): greater than 23.5±5.6%
Structure (SMILES): CC(C)[C@H](N)C(=O)O[C@@H](C)[C@H](O)[C@H]1CNc2nc(N)[nH]c(=O)c2N1 [Example 5, 2-Amino-3-methyl-butyric acid 2-(2-amino-4-oxo-3,4,5,6,7,8-hexahydro-pteridin-6-yl)-2-hydroxy-1-methyl-ethyl ester dihydrochloride]
absorption and distribution of the analog in plasma ([1]; oral 5 mg/kg, FIG. 10): absorbed quickly and was rapidly distributed by 4 hr
decrease in systolic blood pressure (SBP) ([2]; 2 mg/kg/day oral gavage (BH4 equivalents)): 6.8 mmHg
decrease in SBP compared with BH4 100 mg/kg ([2]; 10 mg/kg/day during 3 weeks, FIG. 31): decreased SBP to the same extent as a 10-fold greater dose of BH4
decrease in systolic blood pressure (SBP) ([2]; 10 mg/kg/day oral gavage (BH4 equivalents)): 13.9 mmHg
decrease in systolic blood pressure (SBP) ([2]; 30 mg/kg/day oral gavage (BH4 equivalents)): 13.7 mmHg
